# Data taken from patent US20250296939A1, “BENZOTHIOPHENE COMPOUND” (Kyoto Pharmaceutical Industries, Ltd., priority 2022, published 2025).
# pIC50: −log10 of the molar value.
# Experiments:
# [1] = tested on: NQO1 activity in Hepa1c1c7 cells; assay: NAD(P)H: quinone oxidoreductase-1 (NQO1) enzyme induction assay (in vitro); assay type: cell-based, mouse; settings: Mus musculus, Hepa-1c1c7, NQO1 activity upon addition of 400 nM of test compound, about 48 hr, ratio from the base without the compound
# Outline: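 Mouse Hepa1c1c7 hepatoma cells were treated with 400 nM compound for about 48 h, then lysed with digitonin/EDTA. NQO1 activity was measured as menadione-mediated MTT reduction with a G6P/G6PDH NADPH-regenerating system, stopped with dicoumarol, and read at A610. Values are the activity ratio versus untreated base wells.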
# [2] = molecular target: GST-fused human Keap1 (amino acid residues: 325-642) protein (Homo sapiens (Human), UniProt Q14145); assay: FP assay (in vitro): inhibition of binding between Nrf2 and Keap1 by fluorescence polarization; settings: 20 nM GST-fused human Keap1, 10 nM FITC-labeled Nrf2 peptide, 2 hr at room temperature
# Sequence of GST-fused human Keap1 (amino acid residues: 325-642) protein (Q14145 325-624 limits assumed): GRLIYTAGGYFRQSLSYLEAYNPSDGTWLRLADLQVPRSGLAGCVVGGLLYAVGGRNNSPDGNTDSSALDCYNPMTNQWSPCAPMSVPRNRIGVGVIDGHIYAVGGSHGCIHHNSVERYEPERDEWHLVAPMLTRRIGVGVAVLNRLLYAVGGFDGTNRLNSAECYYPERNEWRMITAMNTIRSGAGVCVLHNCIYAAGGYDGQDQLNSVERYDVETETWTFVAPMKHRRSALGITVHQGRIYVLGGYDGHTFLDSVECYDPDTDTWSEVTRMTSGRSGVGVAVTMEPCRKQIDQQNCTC
Compound,fold induction at 0.4 µM [1],pIC50 [2]
"Cc1c([C@@H](CC(=O)O)c2cc(CN3Cc4nc(O)ccc4O[C@@H](C(F)(F)F)C3)c3sccc3c2)ccc2c1nnn2C [Example 40, (3S)-3-(1,4-Dimethyl-1H-benzotriazol-5-yl)-3-(7-{[(2R)-7-hydroxy-2-(trifluoromethyl)-2,3-dihydropyrido[2,3-f][1,4]oxazepin-4(5H)-yl]methyl}-1-benzothiophen-5-yl)propanoic acid]",1.5 to 3,5.52 to 6.52
"CC[C@@H]1CN(Cc2cc([C@@H](CC(=O)O)c3cc(OC(F)(F)F)c4c(nnn4C)c3C)cc3ccsc23)Cc2nc(O)ccc2O1 [Example 41, (3R)-3-[1,4-Dimethyl-7-(trifluoromethoxy)-1H-benzotriazol-5-yl]-3-(7-{[(2R)-2-ethyl-7-hydroxy-2,3-dihydropyrido[2,3-f][1,4]oxazepin-4(5H)-yl]methyl}-1-benzothiophen-5-yl)propanoic acid]",> 5,≥ 8.00
"CC[C@@H]1CN(Cc2cc([C@H](CC(=O)O)c3cc(OC(F)(F)F)c4c(nnn4C)c3C)cc3ccsc23)Cc2nc(O)ccc2O1 [Example 42, (3S)-3-[1,4-Dimethyl-7-(trifluoromethoxy)-1H-benzotriazol-5-yl]-3-(7-{[(2R)-2-ethyl-7-hydroxy-2,3-dihydropyrido[2,3-f][1,4]oxazepin-4(5H)-yl]methyl}-1-benzothiophen-5-yl)propanoic acid]",> 5,≥ 8.00
"CC[C@@H]1CN(Cc2cc([C@@H](CC(=O)O)c3cc(OC(F)F)c4c(nnn4C)c3C)cc3ccsc23)Cc2nc(O)ccc2O1 [Example 43, (3R)-3-[7-(Difluoromethoxy)-1,4-dimethyl-1H-benzotriazol-5-yl]-3-(7-{[(2R)-2-ethyl-7-hydroxy-2,3-dihydropyrido[2,3-f][1,4]oxazepin-4(5H)-yl]methyl}-1-benzothiophen-5-yl)propanoic acid]",> 5,7.52 to 8.00
"CC[C@@H]1CN(Cc2cc([C@H](CC(=O)O)c3cc(OC(F)F)c4c(nnn4C)c3C)cc3ccsc23)Cc2nc(O)ccc2O1 [Example 44, (3S)-3-[7-(Difluoromethoxy)-1,4-dimethyl-1H-benzotriazol-5-yl]-3-(7-{[(2R)-2-ethyl-7-hydroxy-2,3-dihydropyrido[2,3-f][1,4]oxazepin-4(5H)-yl]methyl}-1-benzothiophen-5-yl)propanoic acid]",> 5,≥ 8.00
"Cc1c([C@H](CC(=O)O)c2cc(CN3Cc4nc(O)ccc4O[C@H](C(C)(F)F)C3)c3sccc3c2)ccc2c1nnn2C [Example 45, (3R)-3-(7-{[(2S)-2-(1,1-Difluoroethyl)-7-hydroxy-2,3-dihydropyrido[2,3-f][1,4]oxazepin-4(5H)-yl]methyl}-1-benzothiophen-5-yl)-3-(1,4-dimethyl-1H-benzotriazol-5-yl)propanoic acid]",> 5,7.52 to 8.00
"Cc1c([C@H](CC(=O)O)c2cc(CN3Cc4nc(O)ccc4O[C@H](C(F)(F)F)C3)c3sccc3c2)cnc2c1nnn2C [Example 46, (3R)-3-(3,7-Dimethyl-3H-[1,2,3]triazolo[4,5-b]pyridin-6-yl)-3-(7-{[(2S)-7-hydroxy-2-(trifluoromethyl)-2,3-dihydropyrido[2,3-f][1,4]oxazepin-4(5H)-yl]methyl}-1-benzothiophen-5-yl)propanoic acid]",3 to 5,≥ 8.00
"Cc1c([C@@H](c2cc(CN3Cc4nc(O)ccc4OC4(CC4)C3)c3sccc3c2)C(C)(C)C(=O)O)ccc2c1nnn2C [Example 47, (3R)-3-(1,4-Dimethyl-1H-benzotriazol-5-yl)-3-{7-[(7′-hydroxy-3′H-spiro[cyclopropane-1,2′-pyrido[2,3-f][1,4]oxazepin]-4′ (5′H)-yl)methyl]-1-benzothiophen-5-yl}-2,2-dimethylpropanoic acid]",1.5 to 3,5.52 to 6.52
"CC[C@@H]1CN(Cc2cc([C@@H](c3cnc4c(nnn4C)c3C)C(C)(C)C(=O)O)cc3ccsc23)Cc2nc(O)ccc2O1 [Example 48, (3S)-3-(3,7-Dimethyl-3H-[1,2,3]triazolo[4,5-b]pyridin-6-yl)-3-(7-{[(2R)-2-ethyl-7-hydroxy-2,3-dihydropyrido[2,3-f][1,4]oxazepin-4(5H)-yl]methyl}-1-benzothiophen-5-yl)-2,2-dimethylpropanoic acid]",> 5,7.52 to 8.00
"CC[C@@H]1CN(Cc2cc([C@H](c3cnc4c(nnn4C)c3C)C(C)(C)C(=O)O)cc3ccsc23)Cc2nc(O)ccc2O1 [Example 49, (3R)-3-(3,7-Dimethyl-3H-[1,2,3]triazolo[4,5-b]pyridin-6-yl)-3-(7-{[(2R)-2-ethyl-7-hydroxy-2,3-dihydropyrido[2,3-f][1,4]oxazepin-4(5H)-yl]methyl}-1-benzothiophen-5-yl)-2,2-dimethylpropanoic acid]",3 to 5,5.52 to 6.52
"Cc1c([C@H](c2cc(CN3Cc4nc(O)ccc4OC4(CC4)C3)c3sccc3c2)C(C)(C)C(=O)O)cnc2c1nnn2C [Example 50, (3S)-3-(3,7-Dimethyl-3H-[1,2,3]triazolo[4,5-b]pyridin-6-yl)-3-{7-[(7′-hydroxy-3′H-spiro[cyclopropane-1,2′-pyrido[2,3-f][1,4]oxazepin]-4′(5′H)-yl)methyl]-1-benzothiophen-5-yl}-2,2-dimethylpropanoic acid]",> 5,7.52 to 8.00
"Cc1c([C@H](c2cc(CN3Cc4nc(O)ccc4O[C@H](C4CC4)C3)c3sccc3c2)C(C)(C)C(=O)O)cnc2c1nnn2C [Example 51, (3S)-3-(7-{[(2R)-2-Cyclopropyl-7-hydroxy-2,3-dihydropyrido[2,3-f][1,4]oxazepin-4(5H)-yl]methyl}-1-benzothiophen-5-yl)-3-(3,7-dimethyl-3H-[1,2,3]triazolo[4,5-b]pyridin-6-yl)-2,2-dimethylpropanoic acid]",> 5,7.52 to 8.00
"Cc1c(C(CC(=O)O)c2cc(CN3Cc4nc(O)ccc4OC4(CC4)C3)c3sccc3c2)ccn2c(C)nnc12 (stereo not drawn) [Example 54, 3-(3,8-Dimethyl[1,2,4]triazolo[4,3-a]pyridin-7-yl)-3-{7-[(7′-hydroxy-3′H-spiro[cyclopropane-1,2′-pyrido[2,3-f][1,4]oxazepin]-4′(5′H)-yl)methyl]-1-benzothiophen-5-yl}propanoic acid]",3 to 5,7.52 to 8.00
"CC[C@@H]1CN(Cc2cc([C@@H](CC(=O)O)c3ccc4c(nnn4C)c3C)cc3ccsc23)Cc2nc(N)ccc2O1 [Example 55, (3R)-3-(7-{[(2R)-7-Amino-2-ethyl-2,3-dihydropyrido[2,3-f][1,4]oxazepin-4(5H)-yl]methyl}-1-benzothiophen-5-yl)-3-(1,4-dimethyl-1H-benzotriazol-5-yl)propanoic acid]",> 5,≥ 8.00
"CC[C@@H]1CN(Cc2cc([C@H](CC(=O)O)c3ccc4c(nnn4C)c3C)cc3ccsc23)Cc2nc(N)ccc2O1 [Example 56, (3S)-3-(7-{[(2R)-7-Amino-2-ethyl-2,3-dihydropyrido[2,3-f][1,4]oxazepin-4(5H)-yl]methyl}-1-benzothiophen-5-yl)-3-(1,4-dimethyl-1H-benzotriazol-5-yl)propanoic acid]",> 5,≥ 8.00
"CC[C@@H]1CN(Cc2cc(C(CC(=O)O)c3ccc4c(nnn4C)c3C)cc3ccsc23)Cc2nc(F)ccc2O1 (stereo partly drawn) [Example 57, 3-(1,4-Dimethyl-1H-benzotriazol-5-yl)-3-(7-{[(2R)-2-ethyl-7-fluoro-2,3-dihydropyrido[2,3-f][1,4]oxazepin-4(5H)-yl]methyl}-1-benzothiophen-5-yl)propanoic acid]",> 5,7.52 to 8.00
"CC[C@@H]1CN(Cc2cc(C(CC(=O)O)c3ccc4c(nnn4CCCS(C)(=O)=O)c3C)cc3ccsc23)Cc2nc(O)ccc2O1 (stereo partly drawn) [Example 62, 3-(7-{[(2R)-2-Ethyl-7-hydroxy-2,3-dihydropyrido[2,3-f][1,4]oxazepin-4(5H)-yl]methyl}-1-benzothiophen-5-yl)-3-{4-methyl-1-[3-(methylsulfonyl)propyl]-1H-benzotriazol-5-yl}propanoic acid]",> 5,7.52 to 8.00
"CC[C@@H]1Cc2cccnc2CN(Cc2cc(C(CC(=O)O)c3ccc4c(nnn4C)c3C)cc3ccsc23)C1 (stereo partly drawn) [Example 63, 3-(1,4-Dimethyl-1H-benzotriazol-5-yl)-3-(7-{[(6R)-6-ethyl-5,6,7,9-tetrahydro-8H-pyrido[2,3-c]azepin-8-yl]methyl}-1-benzothiophen-5-yl)propanoic acid]",3 to 5,6.52 to 7.52
"CC[C@H]1Cc2cccnc2CN(Cc2cc(C(CC(=O)O)c3ccc4c(nnn4C)c3C)cc3ccsc23)C1 (stereo partly drawn) [Example 64, 3-(1,4-Dimethyl-1H-benzotriazol-5-yl)-3-(7-{[(6S)-6-ethyl-5,6,7,9-tetrahydro-8H-pyrido[2,3-c]azepin-8-yl]methyl}-1-benzothiophen-5-yl)propanoic acid]",> 5,6.52 to 7.52
"CC[C@@H]1CN(Cc2cc([C@@H](CC(=O)O)c3cnc4c(nnn4C)c3C)cc3ccsc23)Cc2nc(N)ccc2O1 [Example 67, (3R)-3-(7-{[(2R)-7-Amino-2-ethyl-2,3-dihydropyrido[2,3-f][1,4]oxazepin-4(5H)-yl]methyl}-1-benzothiophen-5-yl)-3-(3,7-dimethyl-3H-[1,2,3]triazolo[4,5-b]pyridin-6-yl)propanoic acid]",> 5,7.52 to 8.00
"CC[C@@H]1CN(Cc2cc([C@H](CC(=O)O)c3cnc4c(nnn4C)c3C)cc3ccsc23)Cc2nc(N)ccc2O1 [Example 68, (3S)-3-(7-{[(2R)-7-Amino-2-ethyl-2,3-dihydropyrido[2,3-f][1,4]oxazepin-4(5H)-yl]methyl}-1-benzothiophen-5-yl)-3-(3,7-dimethyl-3H-[1,2,3]triazolo[4,5-b]pyridin-6-yl)propanoic acid]",> 5,7.52 to 8.00
